Assay results: patent US7794934B2, “Predicting negative symptom change during drug treatment” (Centre for Addiction and Mental Health, priority 2006, dated 2010)
Where two headings read alike, the source gives them in different places.

How the values were obtained:
[1] = tested on: patients with schizophrenia; conditions: cited from earlier work
[2] = tested on: NMDA receptors; conditions: Wang and Liang 1998; cited from earlier work
[3] = tested on: schizophrenic subjects; assay: Negative symptom improvement (SADSneg subscale) over six months of clozapine treatment, by GRIN2B T5988C genotype; assay type: in vivo, human; conditions: after six months of clozapine treatment, baseline as covariate
Protocol: Our sample consisted of 90 schizophrenic subjects treated with clozapine. The majority of the patients were Caucasian. The second most represented ethnicity was African American. The ratio of males to females was approximately 2.5:1. The overall response to clozapine treatment over six months was assessed using the Brief Psychiatric Rating Scale (BPRS) and the Schedule for Affective Disorders and Schizophrenia (SADS). The sample is composed of a group of patients from the Cleveland area (obtained from Dr. H. Y Meltzer, Case Western Reserve University), as part of a multisite coordinated clinical trial of clozapine response. Data on the specific assessment of negative symptom improvement in response to clozapine treatment were collected over a six month period (baseline minus 6 month score). Negative symptom improvement over a period of six months was assessed using the Brief Psychiatric Rating Scale subscale for negative symptoms (BPRSneg), and the Schedule for Affective Disorders and Schizophrenia subscale for negative symptoms (SADSneg).
Analysis of Covariance (ANCOVA) was performed in order to test the effect of genotype on negative symptom improvement as measured by the SADSneg subscale. The baseline score for the SADSneg, assessed before the clozapine treatment was started, was used as a covariate, in part to control for regression to the mean effects.

[4] = tested on: neurotoxicity induced by NMDA receptor antagonists; conditions: Farber 1993, 1996; Olney 1994; cited from earlier work
[5] = tested on: NMDA-receptor-mediated neurotransmission; conditions: Arvanov et al. 1997; cited from earlier work
[6] = tested on: NMDA receptor; conditions: at therapeutic levels (Lidsky et al. 1993); cited from earlier work
[7] = tested on: PCP-induced social withdrawal; conditions: rats (Corbett et al. 1995); cited from earlier work
[8] = biological target: glycine binding site associated with the NMDAR complex (Homo sapiens, UniProt Q05586); conditions: cited from earlier work
[9] = added to conventional antipsychotics

Q: What does the source list for `N[C@@H]1CONC1=O` [D-cycloserine]?
A: effect on negative symptoms ([1]; added to clozapine): worsening of negative symptoms; effect on negative symptoms [1, 9]: significantly improved; performance on a cognitive battery [1, 9]: did not improve

Q: For `COc1cccc([C@H](O)C2CCN(CCc3ccc(F)cc3)CC2)c1OC` [M100907], which “prevention of PCP-induced blockade of NMDA receptors” value [2] is on record?
A: prevented

Q: For `CN1CCN(C2=Nc3cc(Cl)ccc3Nc3ccccc32)CC1` [clozapine], which “SADSneg mean (mean converted change score, baseline minus 6 month score)” value ([3]; GRIN2B 5988 C C genotype) is on record?
A: 1.3

Q: And the “SADSneg mean (mean converted change score, baseline minus 6 month score)” value ([3]; GRIN2B 5988 C T genotype)?
A: 1.26

Q: What about the “SADSneg mean (mean converted change score, baseline minus 6 month score)” value ([3]; GRIN2B 5988 T T genotype) of the same compound?
A: 1.87

Q: Which “prevention of neurotoxicity induced by NMDA receptor antagonists” value [4] does the source give for `CN1CCN(C2=Nc3cc(F)ccc3Cc3ccccc32)CC1` [fluperlapine] here?
A: strongly prevented

Q: What does the source list for `O=C(CCCN1CCC(O)(c2ccc(Cl)cc2)CC1)c1ccc(F)cc1` [haloperidol]?
A: enhancement of NMDA-receptor-mediated neurotransmission [5]: not; displacement of the ligand [3H]MK801 from the NMDA receptor [6]: not; prevention of neurotoxicity induced by NMDA receptor antagonists [4]: intermediate effectiveness; reversal of PCP-induced social withdrawal [7]: not; mode of action at the glycine binding site associated with the NMDAR complex ([8]; Lidsky et al. 1997): partial agonist; effect on NMDA receptor activity ([8]; in the absence of glycine (Lidsky et al. 1997)): augmented

Q: With `Cc1nc2n(c(=O)c1CCN1CCC(c3noc4cc(F)ccc34)CC1)CCCC2` [risperidone] as the compound, how does the “reversal of PCP-induced social withdrawal” value [7] read?
A: not

Q: Which “prevention of neurotoxicity induced by NMDA receptor antagonists” value [4] does the source give for `CSc1ccc2c(c1)N(CCC1CCCCN1C)c1ccccc1S2` (stereo not shown) [thioridazine] here?
A: intermediate effectiveness
